In ChEMBL document CHEMBL1149624, “9-Substituted berberine derivatives as G-quadruplex stabilizing ligands in telomeric DNA” (Bioorg Med Chem, 2007):

What was measured:
[1] = Inhibition of amplification in human telo21 G-quadruplex DNA by PCR stop assay
Homo sapiens [2] = species on record: Homo sapiens; experiment: Binding affinity to human telo21 G-quadruplex DNA assessed as change in thermal stability in tris-HCl buffer at pH 7.4
Homo sapiens [3] = species on record: Homo sapiens; experiment: Binding affinity to human telo21 G-quadruplex DNA assessed as thermal stability in tris-HCl buffer at pH 7.4
[4] = Inhibition of telomerase expressed in MCF7 cells by TRAP assay; assay type: cell-based, Homo sapiens

COc1ccc2cc3[n+](cc2c1OC)CCc1cc2c(cc1-3)OCO2 [BERBERINE CHLORIDE]
IC50 [1]: 2.1 µM
ΔTm (Homo sapiens [2]): 3.9 °C
Tm (Homo sapiens [3]): 44 °C
IC50 [4]: 75 µM

CCN(CC)CCOc1c(OC)ccc2cc3[n+](cc12)CCc1cc2c(cc1-3)OCO2
IC50 [1]: 2.3 µM
ΔTm (Homo sapiens [2]): 16.9 °C
Tm (Homo sapiens [3]): 57 °C
IC50 [4]: 25 µM

COc1ccc2cc3[n+](cc2c1OCCN(C(C)C)C(C)C)CCc1cc2c(cc1-3)OCO2
IC50 [1]: 2.3 µM
ΔTm (Homo sapiens [2]): 11.6 °C
Tm (Homo sapiens [3]): 51.7 °C
IC50 [4]: 25 µM

COc1ccc2cc3[n+](cc2c1OCCCN1CCNCC1)CCc1cc2c(cc1-3)OCO2
IC50 [1]: 0.7 µM
ΔTm (Homo sapiens [2]): 23 °C
Tm (Homo sapiens [3]): 63.1 °C
IC50 [4]: 7.5 µM
